For 101 compounds, cytotoxicity results are on record in ChEMBL document CHEMBL3507680, “University of Dundee, Gates Library screen for HepG2 cell viability”.

The series can be described thus: Human HepG2 cell viability assay in 384 well format. Also on record: dose 125 nL, time 70.5 hour; cytotoxicity at 70.5 h: concentration not given beside the values. Type of series: toxicity, cell-based. The settings on record: HepG2 cells, read-out: Inhibition.
In the case of `CN(C)c1cc(CNC(=O)c2ccccc2Cl)ccn1`, the cytotoxicity at 70.5 h came out at 1.6%. Regarding `CCOc1ncccc1NC(=O)C1CCS(=O)(=O)C1` (stereo unspecified), the cytotoxicity at 70.5 h came to 0.736%. As for `CC(Cn1ccnc1)NC(=O)N(C)Cc1ccc2c(c1)OCCO2` (stereo unspecified), the figure is 26.7%; as for `CN1C(=O)Cc2cc(-c3csc(CCN4CCOC4=O)n3)ccc21`, 6.81%; as for `CC(Cn1ccnc1)NC(=O)Cc1ccc2c(c1)OCCO2` (stereo unspecified), -0.766%.

In the case of `COc1ccc(CC(=O)NC2CCN(CC(F)F)CC2)cc1OC`, the cytotoxicity at 70.5 h amounted to 0.793%. The figure for `O=C(NCc1cc[nH]n1)NCC(O)c1ccc(F)c(F)c1` (stereo unspecified) is 1.18%.

`CC(c1cc(F)ccc1F)N1CCN(Cc2nccn2C)CC1` (stereo unspecified): the cytotoxicity at 70.5 h is 2.5%.

`CC(O)CN1CCN(C(=O)c2ccc(N3CCCC3)nn2)CC1` (stereo unspecified): the cytotoxicity at 70.5 h came to 1.72%. For the compound `Cc1csc(NC(=O)CN2CCc3c(nc(C4CC4)n3C)C2)n1`, the cytotoxicity at 70.5 h is -1.68%. On to `CCc1nc(CN(C)C2CCN(CCc3ccncc3)C2)no1` (stereo unspecified), for which the cytotoxicity at 70.5 h is -1.6%. As to `Cc1nc(CNC(=O)N(CCCO)C2CCc3ccccc32)oc1C` (stereo unspecified), the cytotoxicity at 70.5 h was -1.03%.

In the case of `Cc1nccc(CNC(=O)N(CCCO)C2CCc3ccccc32)n1` (stereo unspecified), the cytotoxicity at 70.5 h is 30.5%. The figure for `CCc1[nH]ncc1C(=O)N1CCCC(n2cc(C)cn2)C1` (stereo unspecified) is -5.59%.

For the compound `CCc1ncc2c(n1)CN(CCCc1nc3ccccc3o1)CC2`, the cytotoxicity at 70.5 h worked out at 0.768%.

As to `Cc1ncc(CNC(=O)N(CCCO)C2CCc3ccccc32)s1` (stereo unspecified), the cytotoxicity at 70.5 h was -5.3%. `Cc1nc(C)n(C2CCCN(C(=O)c3c(C)nn4cccnc34)C2)n1` (stereo unspecified): the cytotoxicity at 70.5 h was 20.7%. On to `Cc1csc(C2CCCN(C(=O)c3c(C)nn4cccnc34)C2)n1` (stereo unspecified), for which the cytotoxicity at 70.5 h was -4.25%.

On to `Cc1ccc(NC2CCN(C(=O)c3cccc4c3ccn4C)CC2)nn1`, for which the cytotoxicity at 70.5 h is -3.5%. For `Cc1nn2cccnc2c1C(=O)N1CCCC(n2cccn2)C1` (stereo unspecified), the cytotoxicity at 70.5 h was 17.9%. `O=C(c1cnn2cccnc12)N1CCCC(n2ccnc2)C1` (stereo unspecified): the cytotoxicity at 70.5 h was -3.58%.

Turning to `Cc1noc(C)c1CS(=O)(=O)CC(=O)N1CCc2sccc2C1`, the cytotoxicity at 70.5 h was -3.02%. Consider `CC(NC(=O)NCCCn1cncn1)c1ccccc1F` (stereo unspecified), for which the cytotoxicity at 70.5 h is -4.63%. Turning to `Cc1csc(N2CCCN(CCC(=O)NC(N)=O)CC2)n1`, the cytotoxicity at 70.5 h is -1.42%. As for `c1ccc(Cc2noc(CN3CCOC(Cn4cccn4)C3)n2)cc1` (stereo unspecified), the figure is -3.64%; as for `CCCc1nc(CN2CCOC(Cn3cccn3)C2)no1` (stereo unspecified), -1.75%; as for `c1ccc2oc(CCCN3CCc4cncnc4C3)nc2c1`, -2.93%. As to `CC(C)c1nnc2n1CCN(C(=O)c1ccc(N(C)C)nn1)C2`, the cytotoxicity at 70.5 h was determined as 2.93%. With `Cc1nn2cccnc2c1C(=O)N1CCCC(n2ccnc2C)C1` (stereo unspecified), the cytotoxicity at 70.5 h is -4.03%. The figure for `CCc1[nH]ncc1C(=O)N1CCCC(n2ccnc2C)C1` (stereo unspecified) is -7.72%; for `Cc1ncc2c(n1)CN(CCCc1ccccc1)CC2` it is 0.152%. With `Cc1ccc(NC2CCN(C(=O)c3nccc4ccccc34)CC2)nn1`, the cytotoxicity at 70.5 h is -4.93%. For `Cc1ccc(NC2CCN(C(=O)c3cccc4[nH]ncc34)CC2)nn1`, the cytotoxicity at 70.5 h was -4.9%.

For the compound `Cn1c(CNCC2CCCN2c2cccnn2)nc2ccccc21` (stereo unspecified), the cytotoxicity at 70.5 h was -1.26%.

For `Cc1ccc(NC2CCN(C(=O)c3cccnc3O)CC2)nn1`, the cytotoxicity at 70.5 h turned out to be 16.5%. As for `c1ccc(Cn2ccnc2CNCC2CCCN2c2cccnn2)cc1` (stereo unspecified), the figure is 4.91%; as for `Cc1cnc(CN2CCCC2c2noc(C3CC3)n2)cn1` (stereo unspecified), -6.3%. In the case of `Cc1nc(C2CCCN2Cc2nccn2CC(F)(F)F)no1` (stereo unspecified), the cytotoxicity at 70.5 h is -2.36%. `CN(Cc1nnc(C2CC2)n1C)C1CCN(CCc2cnn(C)c2)C1` (stereo unspecified): the cytotoxicity at 70.5 h stood at 39.7%. For `Cc1ccc(C(=O)N2CCN(Cc3ccccc3)CC2)n1C`, the cytotoxicity at 70.5 h amounted to 21%. As for `Cc1cnc(CN(C)C2CCN(CCCc3cnn(C)c3)C2)o1` (stereo unspecified), the cytotoxicity at 70.5 h is -8%.

As for `CCCc1nc(CN2CCCN(Cc3nccn3C)CC2)no1`, the cytotoxicity at 70.5 h is -14.9%. Consider `O=C(Cc1ccc(F)c(Br)c1)N1CCN(CCO)CC1`, for which the cytotoxicity at 70.5 h is -3.28%. As for `Cc1nc(C)n(CC2CCCCN2Cc2cn3ccccc3n2)n1` (stereo unspecified), the figure is -19.3%. With `CCN(CC(=O)NC1(C)CCS(=O)(=O)C1)Cc1ccc(OC)c(F)c1` (stereo unspecified), the cytotoxicity at 70.5 h was -9.28%. As for `Cc1cc(C(=O)N2CCN(Cc3ccsc3)CC2)n(C)n1`, the cytotoxicity at 70.5 h is -14.3%.

Regarding `CCc1sc(C(=O)N2CCC(Nc3ccc(C)nn3)CC2)cc1C`, the cytotoxicity at 70.5 h is -14.5%. As for `N#Cc1cccc(OCCN2CCn3c(nnc3C3CC3)C2)c1`, the figure is -11%; as for `Cc1nc(C)n(CC2CCCN(Cc3cn4c(C)cccc4n3)C2)n1` (stereo unspecified), -11.6%. The figure for `c1ccc2cc(OCCCN3CCn4c(nnc4C4CC4)C3)ccc2c1` is -6.02%; for `CN(CC(=O)NC1(C)CCS(=O)(=O)C1)Cc1ccc(Br)cc1` (stereo unspecified) it is 7.79%. Turning to `COc1ccc(C(=O)NCCNC(=O)c2scnc2Cl)cc1`, the cytotoxicity at 70.5 h is -2.78%.

For the compound `Cc1ccc(C(=O)N2CCN(Cc3ccc(C#N)cc3)CC2)n1C`, the cytotoxicity at 70.5 h is -2.38%. As to `Cc1ccc(-c2nc(CN3CCn4c(C)nnc4C3)co2)cc1`, the cytotoxicity at 70.5 h is -6.98%. As for `O=C(CN1CCc2cncnc2C1)Nc1ccc(Cl)cn1`, the figure is 6.59%. With `Cc1ccc(NC2CCN(C(=O)c3cc4c(s3)CCC4)CC2)nn1`, the cytotoxicity at 70.5 h is -13.9%. In the case of `CCc1ncc2c(n1)CN(CC(=O)Nc1nncs1)CC2`, the cytotoxicity at 70.5 h was -7.12%.

For the compound `COc1ccc(S(=O)(=O)N2CCc3ccc(Cl)cc32)cc1C(=O)O`, the cytotoxicity at 70.5 h was 0.6%. Take `Cc1ccc(S(=O)(=O)N2CCc3ccc(F)cc32)cc1C(=O)O`: the cytotoxicity at 70.5 h was -6.54%. Take `COc1cc(S(=O)(=O)N2CCc3ccccc32)cc(C(=O)O)c1OC`: the cytotoxicity at 70.5 h is -5.58%. In the case of `COc1cc(S(=O)(=O)N2CCc3cc(Br)ccc32)cc(C(=O)O)c1OC`, the cytotoxicity at 70.5 h was -0.737%. The figure for `Cc1ccc(NC2CCN(C(=O)c3ccc(C(N)=O)s3)CC2)nn1` is -5.83%; for `Fc1ccc(-c2nc(CN3CCn4c(nnc4C4CC4)C3)co2)cc1` it is -8.13%. Consider `Cc1ccc(-c2nc(CN3CCn4c(nnc4C4CC4)C3)co2)c(C)c1`, for which the cytotoxicity at 70.5 h is -5.17%. As for `Cc1oc(C)c(C(=O)N2CCCN(c3nccs3)CC2)c1C`, the figure is -5.97%; as for `O=C(c1ccc2nncn2c1)N1CCCCC1Cn1cccn1` (stereo unspecified), 8.64%; as for `CCc1noc(C(C)N2CCN(S(=O)(=O)N3CCCC3)CC2)n1` (stereo unspecified), -8.69%. As for `CCc1noc(C(C)N2CCC(C)CC2)n1` (stereo unspecified), the figure is -3.85%. Consider `CCc1noc(C(C)N2CCN(CC(C)C)CC2)n1` (stereo unspecified), for which the cytotoxicity at 70.5 h turned out to be 12.8%. Consider `CCC1CN(Cc2cccc(C(=O)N(C)C)c2)CCN1CCOC` (stereo unspecified), for which the cytotoxicity at 70.5 h was -8.03%. As for `CC(C)N(Cc1nc2c(cnn2C)c(=O)[nH]1)c1ccccc1`, the cytotoxicity at 70.5 h was determined as 3.46%. As for `CCOc1ccc(Cl)c(C(=O)NCc2ccc(C(=O)NC)cc2)n1`, the figure is 4.62%; as for `CN(Cc1ccccc1)C(=O)c1nc(S(C)(=O)=O)n2ccccc12`, 31.2%; as for `Cc1cc(C2CCCN2CCCS(=O)(=O)c2ccccc2)no1` (stereo unspecified), -4.85%. As for `CC(C)CN(Cc1nc2c(cnn2C)c(=O)[nH]1)C(C)C`, the figure is -2.34%; as for `CCNC(=O)N1CCN(C(=O)c2cc(Cl)cc3cccnc23)CC1`, -9.51%. The figure for `O=C(c1ccc(C(F)(F)F)nc1)N1CCCC(n2cncn2)C1` (stereo unspecified) is -1.03%; for `O=C(Nc1cccc(N2CCCC2)c1)C1CCCN1c1nccs1` (stereo unspecified) it is -2.18%; for `CN(C)c1cc2c(nn1)CCN(C(=O)Cc1noc3ccccc13)C2` it is 9.27%. Consider `Cc1nc(C)n(CC2CCCN2Cc2cn3ccsc3n2)n1` (stereo unspecified), for which the cytotoxicity at 70.5 h was found to be 3.39%.

As to `O=C1C(NCc2nnc3n2CCCC3)CCCN1c1cccc(F)c1` (stereo unspecified), the cytotoxicity at 70.5 h is -3.38%.

With `Cc1ccc(CCN2CCC(N(C)Cc3noc(C4CC4)n3)C2)cc1` (stereo unspecified), the cytotoxicity at 70.5 h worked out at 3.87%. The figure for `CC(C)CC(CNC(=O)NCc1cc[nH]n1)N1CCOCC1` (stereo unspecified) is 39.4%. Turning to `COc1cc(CNC(=O)C2CC(=O)N(C(C)C)C2)ccn1` (stereo unspecified), the cytotoxicity at 70.5 h was -16.6%. With `O=C(Nc1nccs1)NC1CCN(Cc2ccccc2)C1` (stereo unspecified), the cytotoxicity at 70.5 h was -8.23%. As for `Cc1noc(C2CCN(C(=O)c3ccc(N(C)C)nc3)CC2)n1`, the figure is -29.1%; as for `Cc1ccccc1-c1cc(C(=O)NCCN2CCCS2(=O)=O)[nH]n1`, -15.5%. As for `CC(C)c1cc(C(=O)NCCN2CCCS2(=O)=O)n[nH]1`, the figure is -19.6%; as for `Cc1noc(C2CCN(C(=O)CN(C)c3ccc(Cl)cn3)CC2)n1`, -20.9%; as for `CN1CCN(c2cc(CNC(=O)c3ccc(=O)n(C)c3)ccn2)CC1`, -15.6%. The figure for `COc1cc(C)nc(N2CCN(C(=O)CN(C)C3CC3)CC2)n1` is -4.51%.

For the compound `COc1cc(C)nc(N2CCN(C(=O)COCC(F)(F)F)CC2)n1`, the cytotoxicity at 70.5 h was -15.4%. Consider `CCn1ccnc1CN1CCCN(C(=O)c2cccn2C)CC1`, for which the cytotoxicity at 70.5 h worked out at 23.9%.

Turning to `Cn1cnc2c1CCN(Cc1cccc(C(N)=O)c1)C2`, the cytotoxicity at 70.5 h was -7.77%. As for `Cn1cc(CN2CCCN(C(=O)c3cc[nH]n3)CC2)cn1`, the figure is -9.96%; as for `CCc1nc(C2CCCN2C(=O)c2ncoc2CC)no1` (stereo unspecified), -5.48%.

As for `CCc1[nH]ncc1C(=O)N1CCCC(n2nc(C)nc2C)C1` (stereo unspecified), the cytotoxicity at 70.5 h came out at 19.7%. As for `COc1ccc(CNC(=O)N2CCC(Cc3cnn(C)c3)C2)cc1C` (stereo unspecified), the figure is -3.46%; as for `O=C(NCc1nn(-c2ccccc2)c2c1CCC2)NC1CC1`, -19%; as for `Cc1cc(C)n(C2CCCN(C(=O)COCC(F)(F)F)C2)n1` (stereo unspecified), -22.5%. As for `c1cnnc(N2CCCC2CNCc2nc(C3CC3)no2)c1` (stereo unspecified), the figure is -11.8%.
